Measurements taken from patent publication EP2451450B1, “Inhibitors of proline racemase enzymes for the treatment of Trypanosoma spp infections” (Institut Pasteur, priority 2009, dated 2011).

Assays:
[1] = test system: Vero cells; assay: Toxicity for Vero cells, Trypan Blue exclusion; assay type: cell-based, green monkey; details: 10 µM, 48h
Description: Finally both the compounds OxoPA and Br-OxoPA were tested at a concentration of 10 µM for toxicity of Vero cells for 48h. Both compounds are not toxic as evaluated by Trypan Blue exclusion (not shown).

[2] = test system: T. cruzi; assay: Capture ELISA of Vero cultures infected 17h with or without inhibitor; assay type: cell-based, Trypanosoma cruzi; details: 17h at 37°C, 10:1 parasite/cell ratio; 0-30 mM OxoPA, Br-OxoPA or 10-1000 µM PYC in DMSO; Fig. 9
Description: Flat-bottomed microtiter plates (Nunc, Denmark) were coated overnight at 4°C with rabbit anti-T. cruzi polyclonal antibodies and further blocked for 4 h at room temperature (RT) with 1% BSA, 0.05% Tween 20 in PBS. After washings, lysate samples from infected or control Vero cultures, or from T. cruzi, were then added and incubated at 4°C for 18h. Plates were washed with PBS-Tween and incubated for 2h at RT with polyclonal mouse anti-T. cruzi chronic serum, washed again and incubated for 1 h at RT with HRP-secondary antibodies. […] Optical densities were determined in a spectrophotometer at 450 nm and 650 nm and analyzed using Softmax Pro software.
To confirm the effect of the inhibitors in the initial steps of the host-parasite interaction, cultures were infected for 17h at 37°C at a 10:1 parasite/cell ratio with or without increasing doses of freshly prepared dilutions (0-30 mM) of OxoPA, Br-OxoPA (15), or (10-1000 µM) of PYC, previously dissolved in DMSO and further analyzed by capture ELISA (see methods and Fig. 9). […] Three ongoing studies were performed to determine whether TcPRAC inhibition by the new compounds affects parasite intracellular fate. To do this, host cells were infected for 17 hours then washed and different ligand concentrations (5 mM, 10 mM, 30, 100 mM) were added to the medium. The degree of infection was determined over 48 hours by capture ELISA. The number of parasites per well decreased in a dose-dependent manner (Fig. 7). These experiments indicate that TcPRAC inhibition by OxoPA and Br-OxoPA affects both cellular infection by T. cruzi and parasite development in tissues.

[3] = test system: T.cruzi CL Brener (clone F11-F5); assay: Vero cell infection by trypomastigotes in the presence of inhibitor (17h), Giemsa scoring; assay type: cell-based; set-up: key: EI = % infected cells × mean parasites per infected cell; details: Table 5
[4] = test system: T.cruzi CL Brener (clone F11-F5); assay: as above; assay type: cell-based; set-up: key to Endocytic index / Endocytic index (EI): EI = % infected cells × mean parasites per infected cell; details: for Mean number of parasites/ cell: 1,5 at 0; for % Infected cells: 38,6 at 0; for Endocytic index: 57 at 0
Description: Vero cells (from green monkey kidney) were seeded at a density of 15x10^6 cells per 25cm^2 culture flasks or at 5 x10^4 cells/well into LabTek slides. The cultures were maintained in RPMI 1640 medium supplemented with 5% fetal bovine serum and kept at 37°C in an atmosphere of 5% CO2. Cell culture-derived trypomastigotes from T.cruzi CL Brener (clone F11-F5) were isolated from the supernatant of Vero cells, which had been previously infected with bloodstream trypomastigotes. Vero cell cultures were infected for 17h at 37°C with cultured trypomastigotes at a 10:1 parasite/cell ratio in the presence or in the absence of increasing doses of freshly made dilutions (3-30 µM) of (E)-4-oxopent-2-enoic acid (OxoPA) and its derivative (E)-5-bromo-4-oxopent-2-enoic acid (Br-OxoPA), previously dissolved in dimethyl sulfoxide (DMSO). For comparison, cultures were seeded with or without 10-1000 µM specific proline racemase inhibitor pyrrole-2-carboxylic acid (PYC) also diluted in DMSO. To verify if proline racemase inhibitors could also exert an effect on the parasite intracellular cycle after 17 hours of parasite-host cell interaction, all the wells were then rinsed three times to eliminate all extracellular parasites and new medium was added to the cultures that were incubated for up to 48 hours with fresh dilutions of the inhibitor compounds. After the different treatments, cultures were washed with PBS, fixed and stained with Giemsa. The numbers of infected host cells and of parasites per infected cell were then scored in at least 400 host cells in independent experiments, run in duplicate. Results are expressed as the percentage of infected cells, the mean number of parasites per infected cell or by the endocytic index (EI) which represents the percentage of infected cells multiplied by the mean number of parasites per infected cell.
Vero cells (from green monkey kidney) were seeded at a density of 15x10^6 cells per 25cm^2 culture flasks or at 5 x10^4 cells/well into LabTek slides. The cultures were maintained in RPMI 1640 medium supplemented with 5% fetal bovine serum and kept at 37°C in an atmosphere of 5% CO2. Cell culture-derived trypomastigotes from T.cruzi CL Brener (clone F11-F5) were isolated from the supernatant of Vero cells, which had been previously infected with bloodstream trypomastigotes. LabTek wells were infected for 17h at 37°C with cultured trypomastigotes at a 10:1 parasite/cell ratio in the presence or in the absence of increasing doses of a freshly made dilutions of 3-30 µM of OxoPA or Br-OxoPA molecules. Cultures were washed, fixed and stained with Giemsa. *At this stage, for comparison, results obtained from cultures seeded with or without 10-1000 µM specific proline racemase inhibitor pyrrole-2-carboxylic acid (PYC) are shown and were obtained from our previous work. Endocytic index was calculated as the % of infected cells X the mean number of intracellular parasites per infected cell. Nd = Not done

[5] = Inhibitor concentration (µM) 30, Table 5

| SMILES | toxicity of Vero cells [1] | inhibition of cellular infection [2] | Endocytic index (EI) ([3]; Inhibitor concentration (µM) 3) | Mean number of parasites/ cell ([4]; 3 µM) | % Infected cells ([4]; 3 µM) | Endocytic index ([4]; 3 µM) | Mean number of parasites/ cell ([4]; 10 µM) | % Infected cells ([4]; 10 µM) | Endocytic index ([4]; 10 µM) | Mean number of parasites/ cell ([4]; 30 µM) | % Infected cells ([4]; 30 µM) | Endocytic index ([4]; 30 µM) | Endocytic index (EI) ([4]; Inhibitor concentration (µM) 10, Table 5) | Endocytic index (EI) [4, 5] | lower doses necessary to obtain the same endocytic index (EI) as with PYC ([4]; Table 5) | lower doses necessary to obtain the same endocytic index (EI) as with PYC ([4]; versus 1000 µM PYC) | Endocytic index (EI) ([3]; Inhibitor concentration (µM) 10) |
| --- | --- | --- | --- | --- | --- | --- | --- | --- | --- | --- | --- | --- | --- | --- | --- | --- | --- |
| O=C(O)/C=C/C(=O)CBr [Br-OxoPA, (E)-5-bromo-4-oxopent-2-enoic acid] | not toxic | a clear dose dependent inhibition of cellular infection | 78 | 2,0 | 37,7% | 77,7 | 1,8 | 23,5% | 42,3 | 1,6 | 13,5% | 28,7 | 42 | 29 | 30 fold | 30 times | – |
| CC(=O)/C=C/C(=O)O [OxoPA, (E)-4-oxopent-2-enoic acid] | not toxic | a clear dose dependent inhibition of cellular infection | 42 | 1,6 | 26,8% | 41,8 | 1,4 | 16,6% | 22,96 | 1,5 | 13,9% | 21,5 | – | 21 | 100 fold | 100 times | 23 |
